In data set [1] the test system is AA-induced platelet aggregation. Put plainly: AA-induced platelet aggregation in PRP (light transmittance aggregometry). It counts as cell-based, human. The conditions noted are these: for IC50: Homo sapiens, AA 500 μM, PRP, 1 min pre-incubation, mean ± SD, three platelet preparations. Here is the method: (§1) The antiplatelet activity of DHA-apigenin, apigenin, DHA, and equimolar solution of apigenin/DHA was studied in platelet rich plasma (PRP) by light transmittance aggregometry (LTA) assay, as previously described. Briefly, PRP was prepared from peripheral venous blood of apparently healthy normolipidemic volunteers. The platelets of PRP were adjusted to a final concentration of 2.5 × 10^8 per Ml with homologous platelet-poor plasma (PPP). The PRP was then pre-incubated with each one of the compounds for 1 min before the initiation of aggregation. The final DMSO concentration in each assay was <0.5% (v/v). In the control experiments, the PRP was incubated with each one of the compounds for 5 min in order to evaluate whether each tested compound was a platelet activator. Platelet aggregation induced by ADP (10 Μm), AA (500 Μm), and TRAP-6 (10 Μm) was determined in aliquots of 0.5 Ml of PRP, at 37 °C under continuous stirring at 1200 rpm, in a Chronolog Lumi-Aggregometer (model 700 4-channel) equipped with the AggroLink software package. The maximal aggregation, achieved within 4 min after the addition of each agonist, was determined and expressed as a percentage of 100% light transmission calibrated for each specimen (maximal percentage of aggregation; MPA). Τhe inhibitory efficacy of each compound tested was also expressed as IC50 values (concentration that induces 50% inhibition of platelet aggregation). All aggregation studies were conducted within 3 h after blood was drawn. The inhibition of platelet aggregation (IPA) values induced by each compound was calculated using the […].

For data set [2], the system named is ADP-induced platelet aggregation. Put plainly: ADP-induced platelet aggregation in PRP (light transmittance aggregometry). The following applies: for IC50: Homo sapiens, ADP 10 μM, PRP, 1 min pre-incubation, mean ± SD, three platelet preparations. The format is cell-based, human. Here is the method:
as §1

Data set [3] relates to TRAP-6-induced platelet aggregation. Put plainly: TRAP-6-induced platelet aggregation in PRP (light transmittance aggregometry). It counts as cell-based, human. The conditions noted are these: for IC50: Homo sapiens, TRAP-6 10 μM, PRP, 1 min pre-incubation, mean ± SD, three platelet preparations; for enhanced inhibitory activity with respect to DHA: TRAP-6 induced platelet aggregation. As for the experimental part:
as §1

Data set [4] can be described thus: Serum pharmacokinetics after oral administration in C57BL/6J mice. The following applies: oral 50 mg/kg in olive oil; for Tmax / half-life / AUC(0-t) / Vd/F / Cmax / AUC(0-inf): male, mouse; for AUC(0-t): 0-6 h, read-out: AUC0−t, Estimate (%CV); for Vd/F / Cl/F: normalized to fraction absorbed; for Vd/F: read-out: Vz/F; for Cmax: read-out: Cmax, Estimate (%CV); for AUC(0-inf): to be considered with caution (high extrapolation); for AUC % extrapolated: based on λz, 50 mg/kg. It counts as in vivo. As for the experimental part:
For the detection of the conjugate, the EVOQ Elite ER TQ (Bruker) mass spectrometer was operated in negative ionization electrospray mode (ESI) under multiple reaction monitoring (MRM). […] Optimum ESI conditions were determined as follows: spray voltage, 4500 V; heated probe gas flow, 50 units; heated probe temperature 350℃; cone gas flow, 20 units; cone temperature, 200 °C; nebulizer gas flow, 40 units. Total control of LC and MS, as well as data acquisition, were performed with MSWS software, Version 8.2.1 (Bruker). For the pharmacokinetic studies, a Xevo-G2-XS-QtoF mass spectrometer, coupled to a Waters UPLC I-Class Binary Solvent Manager (Waters Corp., Milford, MA, USA) was used. The mobile phases were composed of water (LC-MS grade) with formic acid 0.1% (A), and acetonitrile (LC-MS grade) with formic acid 0.1% (B). A constant flow of […] was used, with an injection volume of 1 μL; the gradient was as follows: initial phase (B) concentration 20%, increased to 100% within 1.5 min, then kept constant for 1 min, and reduced to 20% until the end of the run (4 min total runtime). The MS conditions were as follows: the scan range was set at m/z 100–600, and the source voltage was 0.8 Kv in negative ionization electrospray mode (ESI). The source temperature was 550 °C, the flow of desolvation gas (N2) was set to 1000 L per hour, and the cone gas flow was set to 20 L per hour. For MS/MS, the collision energy ramp was set from 20 eV to 40 eV, and the declustering potential was 40 V. The column used was the Acquity UPLC® BEH C18 1.7 µm device. For the post processing and analysis of the acquisition data, UNIFY soFTware was used.
60 male 8-week-old C57BL/6J wild type mice, with mean weight equal to 23.5 ± 2.1 g were randomly divided in two groups (a, b) of 30 and each one received different treatment as follows: (a) the apigenin hybrid formulation and (b) the parent apigenin, dissolved in extra virgin olive oil, orally via the gavage technique at the dose of 50 mg/kg. Mice in each group were randomly further divided in 6 subgroups of five, each group representing one sampling time point (15, 30, 60, 120, 240, and 360 min). Animals were anaesthetized with sevoflurane, and sacrificed to collect blood samples via cardiac puncture, in non-heparinized Eppendorf ® Tubes, at the time point of interest after administration. Blood samples were centrifuged (10,000× g rpm, 15 min, 4 °C), and serum was collected, frozen and stored at −70 °C until further processing. In order to quench the reactions, 395 μL of MeOH were added to each sample, along with IS (5 μL of Rosmarinic acid). The samples were vortexed and centrifuged at 10,000× g for 10 min. Then, the supernatant was taken, filtered and transferred to vials for analysis, as described above.
The Phoenix^TM (www.certara.com)®. software was used for data analysis using non-compartmental PK analysis (NCA). More specifically, sparse sampling NCA was performed to determine basic serum PK parameters, namely AUC0−t, AUCinf, Cmax and Tmax, and to calculate the relative oral bioavailability of apigenin after apigenin hybrid formulation and native apigenin oral administration. To calculate the PK parameters and their standard errors (SE), the mean concentration curve is calculated and used in conjunction with the available subject information. The log-linear trapezoidal method was used to calculate AUC0−t and AUCinf, with extrapolation to infinity by dividing the last concentration by the terminal slope, λz (kel, estimated by linear regression analysis on the last three points of the log-transformed concentration vs. time plot).

Data set [5] is described as follows: Human plasma stability assay (LC-MS/MS). It counts as in vitro ADME. The conditions noted are these: 37 °C. Here is the method: Liquid chromatography was performed using an Advance Ultra High Performance Liquid Chromatography (UHPLC) system (Bruker, Germany). The column oven was set at 40 °C. For the separation, a Kinetex C18 column 100 mm × 2.1 mm, 2.6 μm, with a 2.1 mm pro-guard column, was used (Phenomenex). The mobile phases were composed of water (LC-MS grade) with formic acid 0.1% (A) and MeOH (B). The gradient followed at a constant flow of […] was: initial phase (B) concentration 5%, increased to 100% within 1 min, then kept constant for 5.5 min, and reduced to 5% until the end of the run. […] The injection volume was 2 μL, while the auto-sampler temperature was 15 °C.
For the detection of the conjugate, the EVOQ Elite ER TQ (Bruker) mass spectrometer was operated in negative ionization electrospray mode (ESI) under multiple reaction monitoring (MRM). […] Optimum ESI conditions were determined as follows: spray voltage, 4500 V; heated probe gas flow, 50 units; heated probe temperature 350℃; cone gas flow, 20 units; cone temperature, 200 °C; nebulizer gas flow, 40 units. Total control of LC and MS, as well as data acquisition, were performed with MSWS software, Version 8.2.1 (Bruker). […]
The in vitro stability of the apigenin molecular hybrid was evaluated in human plasma (Ph was adjusted to 7.4) at 37 °C. […]

Setting [6] is: ADP-induced platelet aggregation.

Each structure is given as a SMILES string.

`O=c1cc(-c2ccc(O)cc2)oc2cc(O)cc(O)c12` [Apigenin, apigenin] returned a half-inhibitory concentration (IC50) in data set [1] of 850 ± 45 µM. In data set [2], this molecule showed a 50% inhibitory concentration (IC50) of 607 ± 35 µM. Moreover, half-maximal inhibition in data set [3] (IC50) required 56 ± 8 µM. Also, in data set [4], the time to peak (Tmax) is 2 h, the half-life was 3.44 h, the AUC(0-t) is 35 ng·h/mL and the Vd/F stood at 106 L. Also, in data set [4], the peak concentration (Cmax) is 10.8 ng/mL, the AUC(0-inf) was 58.8 ng·h/mL, the AUC % extrapolated is 40% and the Cl/F was 21.3 L/h. The AUC % extrapolated in data set [4] (listed as native apigenin) is recorded as 40.5%.

Turning to `CC/C=C\C/C=C\C/C=C\C/C=C\C/C=C\C/C=C\CCC(=O)O` [DHA, Cis-4,7,10,13,16,19-Docosahexanoic acid, reference compound], the IC50 in data set [1] stood at 130 ± 18 µM; in data set [2], 920 ± 53 µM; in data set [3], 680 ± 42 µM.

Turning to `CC/C=C\C/C=C\C/C=C\C/C=C\C/C=C\C/C=C\CCC(=O)Oc1ccc(-c2cc(=O)c3c(O)cc(O)cc3o2)cc1` [4′-DHA-apigenin hybrid, 4′-DHA-apigenin], the “enhanced inhibitory activity with respect to apigenin” value in data set [1] (AA-induced platelet aggregation) was 2 fold. The molecule further gave a half-maximal inhibitory concentration (IC50) in data set [1] of 353 ± 36 µM. In data set [2] (setting [6]), the “enhanced inhibitory activity with respect to DHA” value is listed as roughly 3 fold and the “enhanced inhibitory activity with respect to apigenin” value is roughly 2 fold. In data set [2], this molecule had a concentration for half-maximal inhibition (IC50) of 362 ± 20 µM. Besides, in data set [3], the IC50 was 52 ± 12 µM and the “enhanced inhibitory activity with respect to DHA” value is reported as “more than 12 fold”. Besides, the “enhancement with respect to native apigenin” value in data set [3] (TRAP-6) stood at 2 fold. The “enhanced inhibitory activity with respect to DHA” value in data set [3] (listed as 4′-DHA-apigenin) is 12 fold. The “parent compound still present” value in data set [5] (after 30 min of incubation) is given as 17.3%. Moreover, the half-life at 5 µM in data set [5] (pH 7.4, read-out: t1/2 in human plasma) was roughly 0.217 h. Also, in data set [4], the time of peak concentration (Tmax) was 2 h, the half-life was 17.4 h, the AUC(0-t) is 91.7 ng·h/mL and the Vd/F was found to be 66.5 L. Besides, in data set [4], the Cmax was 17.8 ng/mL, the AUC(0-inf) was 471 ng·h/mL and the Cl/F is recorded as 2.65 L/h. Besides, the AUC % extrapolated in data set [4] (listed as 4′-DHA-Apigenin) is 80%. The AUC % extrapolated in data set [4] (listed as 4′-DHA-apigenin) is on record as 80.5%.

The term IC50 denotes the midpoint of a concentration-inhibition curve. Read a low IC50 as greater potency. A word on the Tmax: it is the time at which the peak concentration occurs. Broadly, the Cmax is the maximum level reached in the sampled fluid or tissue. What is called AUC(0-inf) is total exposure, with the tail of the curve extrapolated.

Values taken from article PMC10005222, “Development of a Novel Apigenin Dosage form as a Substitute for the Modern Triple Antithrombotic Regimen” (Molecules, 2023).
